# From ChEMBL document CHEMBL3885861, “Open TG-GATES”
# Species on record: Rattus norvegicus
# Test: Open TG-GATES - Regimen: Single
# Assay type: toxicity, organism-based, Sprague-Dawley
# Set-up: regimen Single, gender Male, age 6 weeks
# Settings: in vivo, ip, 450 mg/kg, route intraperitoneal injection, dose level Middle; for APTT / Bas / Eos / Fbg / Hb / Ht / Lym / MCH / MCHC / MCV / Mono / Neu / PT / Plat / RBC / Ret / WBC: tissue Blood; for KIDNEY_L / KIDNEY_R / KIDNEY_TOTAL: tissue Kidney; for LIVER: tissue Liver; for A/G / ALP / ALT / AST / BUN / CRE / Ca / Cl / DBIL / GLC / IP / K / LDH / Na / PL / RALB / TBIL / TC / TG / TP / gamma-GTP: tissue Plasma
compound,measurement,setting,value
CCCCS(=N)(=O)CCC(N)C(=O)O (configuration not stated) [BUTHIONINE SULFOXIMINE],TERMINAL_BW,3 h,218.6 g
same,APTT,3 h,16.6 s
same,Bas,3 h,0%
same,Eos,3 h,0.8%
same,Fbg,3 h,216.4 mg/dL
same,Hb,3 h,13.3 g/dL
same,Ht,3 h,39.8%
same,Lym,3 h,69%
same,MCH,3 h,21.9 pg
same,MCHC,3 h,33.3%
same,MCV,3 h,65.7 fL
same,Mono,3 h,7.8%
same,Neu,3 h,22.2%
same,PT,3 h,12.1 s
same,Plat,3 h,112.2 x10_4/uL
same,RBC,3 h,606.8 x10_4/ul
same,Ret,3 h,8.5%
same,WBC,3 h,79.6 x10_2/uL
same,KIDNEY_L,3 h,1 g
same,KIDNEY_R,3 h,1 g
same,KIDNEY_TOTAL,3 h,2 g
same,LIVER,3 h,10.2 g
same,A/G,3 h,2.1
same,ALP,3 h,794 IU/L
same,ALT,3 h,42.6 IU/L
same,AST,3 h,72 IU/L
same,BUN,3 h,14 mg/dL
same,CRE,3 h,0.5 mg/dL
same,Ca,3 h,11 mg/dL
same,Cl,3 h,104 meq/L
same,DBIL,3 h,0.062 mg/dL
same,GLC,3 h,191.2 mg/dL
same,IP,3 h,10.5 mg/dL
same,K,3 h,4.5 meq/L
same,LDH,3 h,93 IU/L
same,Na,3 h,140.2 meq/L
same,PL,3 h,137.4 mg/dL
same,RALB,3 h,3.7 g/dL
same,TBIL,3 h,0.3 mg/dL
same,TC,3 h,71.4 mg/dL
same,TG,3 h,62.8 mg/dL
same,TP,3 h,5.5 g/dL
same,gamma-GTP,3 h,1.8 IU/L
same,TERMINAL_BW,6 h,217.2 g
same,APTT,6 h,16.6 s
same,Bas,6 h,0%
same,Eos,6 h,0.8%
same,Fbg,6 h,221.2 mg/dL
same,Hb,6 h,13.4 g/dL
same,Ht,6 h,40%
same,Lym,6 h,57.6%
same,MCH,6 h,22 pg
same,MCHC,6 h,33.5%
same,MCV,6 h,65.6 fL
same,Mono,6 h,4.6%
same,Neu,6 h,37.2%
same,PT,6 h,11 s
same,Plat,6 h,108.9 x10_4/uL
same,RBC,6 h,609.8 x10_4/ul
same,Ret,6 h,8.3%
same,WBC,6 h,96.1 x10_2/uL
same,KIDNEY_L,6 h,1 g
same,KIDNEY_R,6 h,1 g
same,KIDNEY_TOTAL,6 h,2 g
same,LIVER,6 h,9.4 g
same,A/G,6 h,2
same,ALP,6 h,837.2 IU/L
same,ALT,6 h,32 IU/L
same,AST,6 h,68.8 IU/L
same,BUN,6 h,11.4 mg/dL
same,CRE,6 h,0.7 mg/dL
same,Ca,6 h,10.8 mg/dL
same,Cl,6 h,104.8 meq/L
same,DBIL,6 h,0.016 mg/dL
same,GLC,6 h,193.2 mg/dL
same,IP,6 h,10 mg/dL
same,K,6 h,4.6 meq/L
same,LDH,6 h,100.6 IU/L
same,Na,6 h,140.4 meq/L
same,PL,6 h,129.8 mg/dL
same,RALB,6 h,3.5 g/dL
same,TBIL,6 h,0.3 mg/dL
same,TC,6 h,73.2 mg/dL
same,TG,6 h,43.2 mg/dL
same,TP,6 h,5.3 g/dL
same,gamma-GTP,6 h,1.2 IU/L
same,TERMINAL_BW,9 h,210.3 g
same,APTT,9 h,17 s
same,Bas,9 h,0%
same,Eos,9 h,0.8%
same,Fbg,9 h,253 mg/dL
same,Hb,9 h,13.3 g/dL
same,Ht,9 h,40%
same,Lym,9 h,63.2%
same,MCH,9 h,21.4 pg
same,MCHC,9 h,33.2%
same,MCV,9 h,64.5 fL
same,Mono,9 h,3.8%
same,Neu,9 h,32.2%
same,PT,9 h,11 s
same,Plat,9 h,113.1 x10_4/uL
same,RBC,9 h,620 x10_4/ul
same,Ret,9 h,8.4%
same,WBC,9 h,93.4 x10_2/uL
same,KIDNEY_L,9 h,1 g
same,KIDNEY_R,9 h,1 g
same,KIDNEY_TOTAL,9 h,1.9 g
same,LIVER,9 h,8.4 g
same,A/G,9 h,2.1
same,ALP,9 h,759.2 IU/L
same,ALT,9 h,31.2 IU/L
same,AST,9 h,61 IU/L
same,BUN,9 h,11.8 mg/dL
same,CRE,9 h,0.6 mg/dL
same,Ca,9 h,11 mg/dL
same,Cl,9 h,107 meq/L
same,DBIL,9 h,0.01 mg/dL
same,GLC,9 h,196.2 mg/dL
same,IP,9 h,9.6 mg/dL
same,K,9 h,4.8 meq/L
same,LDH,9 h,79.4 IU/L
same,Na,9 h,139.2 meq/L
same,PL,9 h,144.2 mg/dL
same,RALB,9 h,3.7 g/dL
same,TBIL,9 h,0.3 mg/dL
same,TC,9 h,84.4 mg/dL
same,TG,9 h,25 mg/dL
same,TP,9 h,5.5 g/dL
same,gamma-GTP,9 h,1.2 IU/L
same,TERMINAL_BW,24 h,229.8 g
same,APTT,24 h,16.6 s
same,Bas,24 h,0%
same,Eos,24 h,1.2%
same,Fbg,24 h,254 mg/dL
same,Hb,24 h,13.2 g/dL
same,Ht,24 h,39.6%
same,Lym,24 h,70.8%
same,MCH,24 h,21.4 pg
same,MCHC,24 h,33.2%
same,MCV,24 h,64.4 fL
same,Mono,24 h,9.4%
same,Neu,24 h,18.8%
same,PT,24 h,11.5 s
same,Plat,24 h,126.4 x10_4/uL
same,RBC,24 h,616.6 x10_4/ul
same,Ret,24 h,8.8%
same,WBC,24 h,85.5 x10_2/uL
same,KIDNEY_L,24 h,1 g
same,KIDNEY_R,24 h,1.1 g
same,KIDNEY_TOTAL,24 h,2.1 g
same,LIVER,24 h,11.1 g
same,A/G,24 h,1.8
same,ALP,24 h,1015.4 IU/L
same,ALT,24 h,30.2 IU/L
same,AST,24 h,60 IU/L
same,BUN,24 h,19.2 mg/dL
same,CRE,24 h,0.5 mg/dL
same,Ca,24 h,11.1 mg/dL
same,Cl,24 h,104.6 meq/L
same,DBIL,24 h,0.008 mg/dL
same,GLC,24 h,196.6 mg/dL
same,IP,24 h,8.3 mg/dL
same,K,24 h,4.4 meq/L
same,LDH,24 h,98 IU/L
same,Na,24 h,140 meq/L
same,PL,24 h,149.4 mg/dL
same,RALB,24 h,3.7 g/dL
same,TBIL,24 h,0.3 mg/dL
same,TC,24 h,80.6 mg/dL
same,TG,24 h,95.2 mg/dL
same,TP,24 h,5.8 g/dL
same,gamma-GTP,24 h,1.6 IU/L
